# How the values were obtained:
# [1] = test system: bromodomain; test: Bromodomain cell assays of Example 40 (at least one of them); format: cell-based; settings: in at least one of the bromodomain cell assays described in Example 40
# Summary of the method: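 Growth inhibition: 3000 MV-4-11, MOLM-13, MM.1S or neuroblastoma cells/well got an 8-point 1:3 series from 10 μM top (0.2% DMSO) for 72 h, then CellTiter-Glo luminescence. Myc reporter: MV-4-11 with E-box firefly luciferase, 24 h exposure, One-Glo luminescence plus CellTiter-Fluo cell count. pIC50 from four-parameter fit.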
# [2] = test system: MV-4-11; test: Oncology cell growth assay MV-4-11 (CellTiter Glo, 72 hours); format: cell-based; settings: Homo sapiens, MV4-11, 72 h; MV-4-11 cell growth inhibitory activity, 3d
# Summary of the method: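 Growth read by CellTiter Glo luminescence after 72 h compound exposure of MV-4-11 AML cells (MLL-AF4), using 8-point 1:3 series to 10 μM final in 0.2% DMSO. Data normalized to DMSO wells, four-parameter fit yields pIC50.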
# [3] = biological target: T1, BRD4-BD1 (44-164) (Homo sapiens, UniProt O60885); test: Alphascreen binding assay BRD4-BD1 (BRD4 biochemical inhibitory activity); settings: read-out: Biochemical activity (IC50 μM) BRD4(1) H4
# T1 construct: BRD4-BD1 (44-164); made in house; host or cells: E. coli BL21-CodonPlus (DE3)
# Summary of the method: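 His-tagged human BRD4-BD1 (44-164), E. coli-expressed, incubated 1 h at room temperature with compound and biotinylated tetra-acetylated histone H4 (1-21) peptide in HEPES pH 7.5 buffer with NaCl, BSA, Triton X-100 and DTT. AlphaScreen nickel-chelate/streptavidin beads (7.5 μg/ml final) added, read after 30 min. pIC50 from four-parameter fit of control-normalized signal.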
Compound,IC50 [1],IC50 [2],IC50 [3]
"Cc1noc(C)c1-c1cnc2c(c1)c(S(=O)(=O)c1ccccc1)cn2C1CCOC1 (stereo not drawn) [P-0181, 4-[3-(benzenesulfonyl)-1-tetrahydrofuran-3-yl-pyrrolo[2,3-b]pyridin-5-yl]-3,5-dimethyl-isoxazole]",< 10000 nM,≤ 1 µM,1 to 10 µM
"Cc1noc(C)c1-c1cnc2c(c1)c(Sc1ccccc1)cn2C1CCOCC1 [P-0182, 3,5-dimethyl-4-(3-phenylsulfanyl-1-tetrahydropyran-4-yl-pyrrolo[2,3-b]pyridin-5-yl)isoxazole]",< 10000 nM,≤ 1 µM,1 to 10 µM
"Cc1noc(C)c1-c1cnc2c(c1)c(S(=O)(=O)c1ccccc1)cn2C1CCOCC1 [P-0183, 4-[3-(benzenesulfonyl)-1-tetrahydropyran-4-yl-pyrrolo[2,3-b]pyridin-5-yl]-3,5-dimethyl-isoxazole]",< 10000 nM,≤ 1 µM,1 to 10 µM
"Cc1nc(-c2cn(S(=O)(=O)c3ccccc3)c3cc(-c4c(C)noc4C)cnc23)cs1 [P-0191, 4-[1-(benzenesulfonyl)-3-(2-methylthiazol-4-yl)pyrrolo[3,2-b]pyridin-6-yl]-3,5-dimethyl-isoxazole]",< 10000 nM,≤ 1 µM,1 to 10 µM
"[2H]C([2H])(C1CCC(F)(F)CC1)n1cc(-c2cnn(C3CC3)c2)c2ncc(-c3c(C)noc3C)cc21 [P-0220, 4-[3-(1-cyclopropylpyrazol-4-yl)-1-[dideuterio-(4,4-difluorocyclohexyl)methyl]pyrrolo[3,2-b]pyridin-6-yl]-3,5-dimethyl-isoxazole]",< 10000 nM,≤ 1 µM,≤ 1 µM

# Reference: patent US10501460B2, “Heterocyclic compounds and uses thereof” (Plexxikon Inc., priority 2013, dated 2019)
